From US20250115622A1, “Crystalline Forms Of An MCL-1 Inhibitor” (AMGEN INC., priority 2022, published 2025)

What was measured:
[1] = Moisture sorption (DVS) profile; format: physicochemical
Method: Moisture Sorption: Moisture sorption data was collected using a VTI SGA 100 symmetrical vapor sorption analyzer. A sample size of approximately 5-10 mg was used in a platinum pan. Hygroscopicity was evaluated from 5 to 95% RH in increments of 5% RH. Data for adsorption and desorption cycles were collected. Equilibrium criteria were set at 0.001% weight change in 10 minutes with a maximum equilibration time of 180 minutes.

Water content by KF = format: physicochemical
Method: AMG 397 hydrate Form 7 was prepared by charging ˜4 g of AMG 397 with 1-propanol and then slurrying at 55° C. for 4 days. Isolated solids were subsequently dried under vacuum at 95-105° C. for 7 days. Water content by KF was 0.9% initially and 5.6% after equilibration at ambient conditions. DVS indicates variable water content to 0-12% based on environment.

[2] = Solubility compared between crystalline forms; format: physicochemical; conditions: relative to AMG 397 anhydrous form 4
[3] = Bioavailability compared between crystalline forms; format: in vivo; conditions: relative to AMG 397 anhydrous form 4
[4] = Thermodynamic stability of solid form; format: physicochemical

CO[C@]1(CN2CCN3CCCC[C@@H]3C2)/C=C/C[C@H](C)[C@@H](C)S(=O)(=O)NC(=O)c2ccc3c(c2)N(C[C@@H]2CC[C@H]21)C[C@@]1(CCCc2cc(Cl)ccc21)CO3 [hydrate form 3]
moisture sorption weight gain ([1]; by 95% relative humidity): 1.9%
moisture sorption weight gain ([1]; by 95% relative humidity, listed as crystalline hydrate form 3 of AMG 397): ~1.9%

CO[C@]1(CN2CCN3CCCC[C@@H]3C2)/C=C/C[C@H](C)[C@@H](C)S(=O)(=O)NC(=O)c2ccc3c(c2)N(C[C@@H]2CC[C@H]21)C[C@@]1(CCCc2cc(Cl)ccc21)CO3 [hydrate form 2]
moisture sorption weight gain ([1]; by 95% relative humidity): 3%
moisture sorption weight gain ([1]; by 95% relative humidity, listed as crystalline hydrate form 2 of AMG 397): ~3.0%

CO[C@]1(CN2CCN3CCCC[C@@H]3C2)/C=C/C[C@H](C)[C@@H](C)S(=O)(=O)NC(=O)c2ccc3c(c2)N(C[C@@H]2CC[C@H]21)C[C@@]1(CCCc2cc(Cl)ccc21)CO3 [anhydrous form 6]
moisture sorption weight gain ([1]; 50-95% relative humidity): 10%
moisture sorption weight gain ([1]; between 0-50% relative humidity): 0.5%
moisture sorption weight gain ([1]; by 95% relative humidity): 10%

CO[C@]1(CN2CCN3CCCC[C@@H]3C2)/C=C/C[C@H](C)[C@@H](C)S(=O)(=O)NC(=O)c2ccc3c(c2)N(C[C@@H]2CC[C@H]21)C[C@@]1(CCCc2cc(Cl)ccc21)CO3 [amorphous AMG 397]
moisture sorption weight gain ([1]; by 95% relative humidity): ~6.4%
moisture sorption weight gain ([1]; by 95% relative humidity, listed as amorphous form of AMG 397): 6.4%

CO[C@]1(CN2CCN3CCCC[C@@H]3C2)/C=C/C[C@H](C)[C@@H](C)S(=O)(=O)NC(=O)c2ccc3c(c2)N(C[C@@H]2CC[C@H]21)C[C@@]1(CCCc2cc(Cl)ccc21)CO3 [hydrate form 7]
variable water content (DVS) ([1]; based on environment): 0-12%
moisture sorption weight gain ([1]; by 95% relative humidity): 0-12%
variable water content (DVS) ([1]; moisture sorption profile): 0-12 % wt
water content by KF (Water content by KF; after equilibration at ambient conditions): 5.6%
water content by KF (Water content by KF; initially): 0.9%

CO[C@]1(CN2CCN3CCCC[C@@H]3C2)/C=C/C[C@H](C)[C@@H](C)S(=O)(=O)NC(=O)c2ccc3c(c2)N(C[C@@H]2CC[C@H]21)C[C@@]1(CCCc2cc(Cl)ccc21)CO3 [hydrate form 1]
moisture sorption weight gain ([1]; by 95% relative humidity): 3.3%
moisture sorption weight gain ([1]; by 95% relative humidity, listed as crystalline hydrate form 1 of AMG 397): ~3.3%
solubility [2]: higher
bioavailability [3]: higher

CO[C@]1(CN2CCN3CCCC[C@@H]3C2)/C=C/C[C@H](C)[C@@H](C)S(=O)(=O)NC(=O)c2ccc3c(c2)N(C[C@@H]2CC[C@H]21)C[C@@]1(CCCc2cc(Cl)ccc21)CO3 [anhydrous form 4]
moisture sorption weight gain ([1]; by 95% relative humidity): 4.5%
moisture sorption weight gain ([1]; by 95% relative humidity, listed as crystalline anhydrous form 4 of AMG 397): ~4.5%
thermodynamic stability of form [4]: thermodynamically stable form
